Source: article PMC10897476, “Pyridylpiperazine efflux pump inhibitor boosts in vivo antibiotic efficacy against K. pneumoniae” (EMBO Molecular Medicine, 2023)
Values joined by “and” are separate entries in the source; they are usually repeats but may differ in a detail not shown here. Equal values may be shown once.

Legend:
Assay type in all cases: cell-based, Klebsiella pneumoniae
K. pneumoniae AcrB^V448E [1] = test: Checkerboard assay levofloxacin x EPI, AcrB V448E mutant; settings: for checkerboard growth readout: ATCC43816 AcrBV448E, levofloxacin 0 ng/mL; for Median REMA values / percentage resazurin turnover: Lev 0.00 ng/mL
Description: (§1) MIC experiments were carried out according to the CLSI guidelines (CLSI [2023]). Overnight cultures were diluted to an OD600 = 0.001 in CAMHB followed by addition of efflux pump inhibitors (EPIs) at a final concentration of 100 µM. […] Plates were incubated at 37 °C for up to 20 h. Bacterial viability was evaluated using the resazurin microtitre assay (REMA) and measured by fluorescence using a Tecan Spaert multimode plate reader (Ex: 530 nm Em: 590 nm). MICs were defined as the concentration that prevented 90% of resazurin turnover compared to the non-treated bacteria.
(§2) Bacterial suspensions, incubation and plate readouts were carried out as described above.

[2] = test system: K. pneumoniae RamR^mut (K124*stop); test: MIC of antibiotics with and without EPI (REMA), RamR mutant; settings: K. pneumoniae-RamR^mut, Table 2
In short: (§3)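 K. pneumoniae ATCC 43816 carrying single chromosomal acrB or ramR mutations introduced by allelic exchange, diluted to OD600 = 0.001 in CAMHB with EPI at final 100 µM. Incubated 37 °C up to 20 h; viability by resazurin fluorescence (Ex 530/Em 590 nm).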

[3] = test system: K. pneumoniae RamR^mut (K124*stop); test: Checkerboard assay levofloxacin x EPI, RamR mutant; settings: for checkerboard growth readout: ATCC43816 ramRmut, levofloxacin 0 ng/mL
Description: as §1, §2

K. pneumoniae AcrB^V448E [4] = test: MIC of antibiotics with and without EPI (REMA), AcrB V448E mutant; settings: K. pneumoniae-AcrB^V448E, Table 2
In short: as §3

[5] = test system: K. pneumoniae ATCC 43816 (WT); test: Checkerboard assay levofloxacin x EPI, WT strain; settings: for checkerboard growth readout: ATCC43816 WT, levofloxacin 0 ng/mL; for percentage resazurin turnover: individual replicates, listed as BDM91288; for Median REMA values (percentage resazurin turnover): median n=3
Description: as §1, §2

[6] = test system: K. pneumoniae AcrB^V448E RamR^mut; test: Checkerboard assay levofloxacin x EPI, double mutant; parameters: checkerboard growth readout: unit not given here; settings: for checkerboard growth readout: ATCC43816 AcrBV448E ramRmut, levofloxacin 0 ng/mL
Description: as §1, §2

Question: `Clc1cc2cc(N3CCNCC3)ccc2nc1N1CCNCC1` [compound 5] was tested. Which checkerboard growth readout (K. pneumoniae AcrB^V448E [1]; EPI 2.3 µM) did it give?
Answer: Its checkerboard growth readout is 105.

Question: And the checkerboard growth readout (K. pneumoniae AcrB^V448E [1]; EPI 4.7 µM)?
Answer: The checkerboard growth readout was 99.

Question: And the checkerboard growth readout (K. pneumoniae AcrB^V448E [1]; EPI 9.4 µM)?
Answer: The checkerboard growth readout was 105.

Question: What about the checkerboard growth readout (K. pneumoniae AcrB^V448E [1]; EPI 19 µM) of the same compound?
Answer: Its checkerboard growth readout is 100.

Question: And the checkerboard growth readout (K. pneumoniae AcrB^V448E [1]; EPI 38 µM)?
Answer: The checkerboard growth readout was 109.

Question: And the checkerboard growth readout (K. pneumoniae AcrB^V448E [1]; EPI 75 µM)?
Answer: Its checkerboard growth readout is 118.

Question: What about the checkerboard growth readout (K. pneumoniae AcrB^V448E [1]; EPI 150 µM) of the same compound?
Answer: Its checkerboard growth readout is 109.

Question: And the checkerboard growth readout (K. pneumoniae AcrB^V448E [1]; EPI 300 µM)?
Answer: Its checkerboard growth readout is 93.

Question: What about the “boosting of levofloxacin activity, in words” value (K. pneumoniae AcrB^V448E [1]; K. pneumoniae AcrB^V448E) of the same compound?
Answer: The value was “boosting was no longer observed”.

Question: What about the “Median REMA values” (K. pneumoniae AcrB^V448E [1]; BDM91288 2.34 uM) of the same compound?
Answer: The value was 105%.

Question: What about the percentage resazurin turnover (K. pneumoniae AcrB^V448E [1]; BDM91288 2.34 uM) of the same compound?
Answer: The percentage resazurin turnover was 105% and 87% and 109%.

Question: What about the “Median REMA values” (K. pneumoniae AcrB^V448E [1]; BDM91288 4.69 uM) of the same compound?
Answer: The value was 99%.

Question: What about the percentage resazurin turnover (K. pneumoniae AcrB^V448E [1]; BDM91288 4.69 uM) of the same compound?
Answer: The percentage resazurin turnover was 99% and 89% and 111%.

Question: And the “Median REMA values” (K. pneumoniae AcrB^V448E [1]; BDM91288 9.38 uM)?
Answer: The value was 105%.

Question: What about the percentage resazurin turnover (K. pneumoniae AcrB^V448E [1]; BDM91288 9.38 uM) of the same compound?
Answer: Its percentage resazurin turnover is 105% and 90% and 114%.

Question: And the “Median REMA values” (K. pneumoniae AcrB^V448E [1]; BDM91288 18.75 uM)?
Answer: The value was 100%.

Question: What about the percentage resazurin turnover (K. pneumoniae AcrB^V448E [1]; BDM91288 18.75 uM) of the same compound?
Answer: Its percentage resazurin turnover is 100% and 93% and 138%.

Question: And the “Median REMA values” (K. pneumoniae AcrB^V448E [1]; BDM91288 37.50 uM)?
Answer: Its value is 109%.

Question: And the percentage resazurin turnover (K. pneumoniae AcrB^V448E [1]; BDM91288 37.50 uM)?
Answer: Its percentage resazurin turnover is 99% and 109% and 157%.

Question: What about the “Median REMA values” (K. pneumoniae AcrB^V448E [1]; BDM91288 75.00 uM) of the same compound?
Answer: The value was 118%.

Question: And the percentage resazurin turnover (K. pneumoniae AcrB^V448E [1]; BDM91288 75.00 uM)?
Answer: Its percentage resazurin turnover is 124% and 117% and 118%.

Question: And the “Median REMA values” (K. pneumoniae AcrB^V448E [1]; BDM91288 150.00 uM)?
Answer: The value was 109%.

Question: What about the percentage resazurin turnover (K. pneumoniae AcrB^V448E [1]; BDM91288 150.00 uM) of the same compound?
Answer: The percentage resazurin turnover was 109% and 152% and 108%.

Question: What about the “Median REMA values” (K. pneumoniae AcrB^V448E [1]; BDM91288 300 uM) of the same compound?
Answer: Its value is 93%.

Question: What about the percentage resazurin turnover (K. pneumoniae AcrB^V448E [1]; BDM91288 300 uM) of the same compound?
Answer: The percentage resazurin turnover was 114% and 93% and 89%.

Question: What about the “EPI mediated antibiotic boosting, in words” value [2] of the same compound?
Answer: The value was “maintained”.

Question: What about the checkerboard growth readout ([3]; EPI 2.3 µM) of the same compound?
Answer: The checkerboard growth readout was 90.

Question: And the checkerboard growth readout ([3]; EPI 4.7 µM)?
Answer: Its checkerboard growth readout is 91.

Question: What about the checkerboard growth readout ([3]; EPI 9.4 µM) of the same compound?
Answer: Its checkerboard growth readout is 93.

Question: And the checkerboard growth readout ([3]; EPI 19 µM)?
Answer: The checkerboard growth readout was 96.

Question: And the checkerboard growth readout ([3]; EPI 38 µM)?
Answer: Its checkerboard growth readout is 124.

Question: And the checkerboard growth readout ([3]; EPI 75 µM)?
Answer: The checkerboard growth readout was 151.

Question: What about the checkerboard growth readout ([3]; EPI 150 µM) of the same compound?
Answer: The checkerboard growth readout was 151.

Question: And the checkerboard growth readout ([3]; EPI 300 µM)?
Answer: The checkerboard growth readout was 103.

Question: What about the “reversion of RamR-mediated levofloxacin resistance, in words” value ([3]; K. pneumoniae RamR^mut) of the same compound?
Answer: The value was “completely reverted”.

Question: What about the “susceptibility of the strain to antibiotic boosting by the EPI, in words” value (K. pneumoniae AcrB^V448E [4]) of the same compound?
Answer: The value was “resistant”.

Question: What about the checkerboard growth readout ([5]; EPI 2.3 µM) of the same compound?
Answer: The checkerboard growth readout was 105.

Question: And the checkerboard growth readout ([5]; EPI 4.7 µM)?
Answer: The checkerboard growth readout was 106.

Question: And the checkerboard growth readout ([5]; EPI 9.4 µM)?
Answer: Its checkerboard growth readout is 97.

Question: And the checkerboard growth readout ([5]; EPI 19 µM)?
Answer: Its checkerboard growth readout is 85.

Question: What about the checkerboard growth readout ([5]; EPI 38 µM) of the same compound?
Answer: The checkerboard growth readout was 109.

Question: What about the checkerboard growth readout ([5]; EPI 75 µM) of the same compound?
Answer: The checkerboard growth readout was 121.

Question: What about the checkerboard growth readout ([5]; EPI 150 µM) of the same compound?
Answer: The checkerboard growth readout was 118.

Question: And the checkerboard growth readout ([5]; EPI 300 µM)?
Answer: Its checkerboard growth readout is 87.

Question: And the “maximal boosting of levofloxacin activity (decrease of MIC)” value ([5]; K. pneumoniae WT (ATCC 43816), at 38 µM BDM91288)?
Answer: Its value is 4 fold.

Question: What about the “concentration needed for efficacy in vitro (boosting levofloxacin activity)” value ([5]; K. pneumoniae WT, Fig. 2) of the same compound?
Answer: Its value is 9 to 38 µM.

Question: What about the percentage resazurin turnover ([5]; Lev 0.00 ng/mL + EPI 2.34 uM) of the same compound?
Answer: Its percentage resazurin turnover is 110% and 85% and 105%.

Question: What about the “Median REMA values (percentage resazurin turnover)” value ([5]; Lev 0.00 ng/mL + EPI 2.34 uM) of the same compound?
Answer: The value was 105%.

Question: What about the percentage resazurin turnover ([5]; Lev 0.00 ng/mL + EPI 4.69 uM) of the same compound?
Answer: Its percentage resazurin turnover is 106% and 98% and 117%.

Question: What about the “Median REMA values (percentage resazurin turnover)” value ([5]; Lev 0.00 ng/mL + EPI 4.69 uM) of the same compound?
Answer: Its value is 106%.

Question: And the percentage resazurin turnover ([5]; Lev 0.00 ng/mL + EPI 9.38 uM)?
Answer: The percentage resazurin turnover was 97% and 89% and 110%.

Question: What about the “Median REMA values (percentage resazurin turnover)” value ([5]; Lev 0.00 ng/mL + EPI 9.38 uM) of the same compound?
Answer: Its value is 97%.

Question: What about the percentage resazurin turnover ([5]; Lev 0.00 ng/mL + EPI 18.75 uM) of the same compound?
Answer: The percentage resazurin turnover was 66% and 85% and 116%.

Question: And the “Median REMA values (percentage resazurin turnover)” value ([5]; Lev 0.00 ng/mL + EPI 18.75 uM)?
Answer: The value was 85%.

Question: And the percentage resazurin turnover ([5]; Lev 0.00 ng/mL + EPI 37.50 uM)?
Answer: Its percentage resazurin turnover is 112% and 98% and 109%.

Question: And the “Median REMA values (percentage resazurin turnover)” value ([5]; Lev 0.00 ng/mL + EPI 37.50 uM)?
Answer: The value was 109%.

Question: And the percentage resazurin turnover ([5]; Lev 0.00 ng/mL + EPI 75.00 uM)?
Answer: Its percentage resazurin turnover is 89% and 138% and 121%.

Question: And the “Median REMA values (percentage resazurin turnover)” value ([5]; Lev 0.00 ng/mL + EPI 75.00 uM)?
Answer: Its value is 121%.

Question: What about the percentage resazurin turnover ([5]; Lev 0.00 ng/mL + EPI 150.00 uM) of the same compound?
Answer: Its percentage resazurin turnover is 94% and 132% and 118%.

Question: What about the “Median REMA values (percentage resazurin turnover)” value ([5]; Lev 0.00 ng/mL + EPI 150.00 uM) of the same compound?
Answer: Its value is 118%.

Question: And the percentage resazurin turnover ([5]; Lev 0.00 ng/mL + EPI 300 uM)?
Answer: The percentage resazurin turnover was 107% and 80% and 87%.

Question: And the “Median REMA values (percentage resazurin turnover)” value ([5]; Lev 0.00 ng/mL + EPI 300 uM)?
Answer: The value was 87%.

Question: What about the “concentration at which boosting of levofloxacin activity starts” value ([5]; parental K. pneumoniae strain, checkerboard) of the same compound?
Answer: Its value is “around 9 µM”.

Question: What about the checkerboard growth readout ([6]; EPI 2.3 µM) of the same compound?
Answer: Its checkerboard growth readout is 87.

Question: And the checkerboard growth readout ([6]; EPI 4.7 µM)?
Answer: The checkerboard growth readout was 75.

Question: What about the checkerboard growth readout ([6]; EPI 9.4 µM) of the same compound?
Answer: Its checkerboard growth readout is 86.

Question: And the checkerboard growth readout ([6]; EPI 19 µM)?
Answer: Its checkerboard growth readout is 93.

Question: And the checkerboard growth readout ([6]; EPI 38 µM)?
Answer: The checkerboard growth readout was 98.

Question: What about the checkerboard growth readout ([6]; EPI 75 µM) of the same compound?
Answer: Its checkerboard growth readout is 128.

Question: And the checkerboard growth readout ([6]; EPI 150 µM)?
Answer: The checkerboard growth readout was 153.

Question: And the checkerboard growth readout ([6]; EPI 300 µM)?
Answer: The checkerboard growth readout was 136.

Question: And the “modulation of levofloxacin MIC, in words” value ([6]; K. pneumoniae AcrB^V448E RamR^mut)?
Answer: The value was “No modulation”.
